Key:
Assay type in all cases: cell-based
NOD1 = molecular target: T1, NOD1 (Homo sapiens, UniProt Q9Y239); test: NF-κB-dependent luciferase reporter assay, HEK293T cells expressing NOD1
T1 construct: expressed in transfected cells; host or cells: HEK293T
T1 sequence (Q9Y239 1-953): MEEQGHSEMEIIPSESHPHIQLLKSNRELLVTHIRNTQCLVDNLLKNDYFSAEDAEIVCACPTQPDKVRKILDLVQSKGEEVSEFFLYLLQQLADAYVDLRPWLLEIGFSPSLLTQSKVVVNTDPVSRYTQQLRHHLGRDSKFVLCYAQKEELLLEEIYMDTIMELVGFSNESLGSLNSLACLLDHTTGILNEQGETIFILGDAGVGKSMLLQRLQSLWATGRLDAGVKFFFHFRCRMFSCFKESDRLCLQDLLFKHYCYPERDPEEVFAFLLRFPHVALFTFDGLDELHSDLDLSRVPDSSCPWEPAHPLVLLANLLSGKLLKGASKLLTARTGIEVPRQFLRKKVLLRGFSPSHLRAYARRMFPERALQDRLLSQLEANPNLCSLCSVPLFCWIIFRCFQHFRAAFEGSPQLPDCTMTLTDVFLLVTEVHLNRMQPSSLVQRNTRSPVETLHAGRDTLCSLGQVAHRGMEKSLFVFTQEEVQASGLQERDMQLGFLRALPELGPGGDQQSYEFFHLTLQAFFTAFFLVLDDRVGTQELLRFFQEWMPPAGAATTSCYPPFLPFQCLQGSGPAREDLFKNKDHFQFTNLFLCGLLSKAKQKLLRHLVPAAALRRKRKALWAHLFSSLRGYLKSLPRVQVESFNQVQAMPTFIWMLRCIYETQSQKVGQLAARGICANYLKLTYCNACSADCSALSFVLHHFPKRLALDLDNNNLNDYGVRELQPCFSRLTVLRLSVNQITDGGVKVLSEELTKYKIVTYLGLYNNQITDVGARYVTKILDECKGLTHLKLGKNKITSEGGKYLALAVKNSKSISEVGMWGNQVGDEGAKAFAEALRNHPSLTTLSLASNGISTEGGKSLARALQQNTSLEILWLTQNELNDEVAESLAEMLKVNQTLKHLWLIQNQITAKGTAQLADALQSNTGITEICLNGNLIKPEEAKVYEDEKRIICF
Excerpt: Reagents. LPS from S. typhimurium, intact and alkaline-detoxified LPS from E. coli O55:B5 as well as purified lipid A preparations of E. coli F583, MDP, DAP and dsRNA were obtained from Sigma-Aldrich (St. Louis, Mo.). PGN from S. aureus was from Fluka-Chemie (Buchs, Germany). Palmitoyl-Cys ((RS)-2,3-di(palmitoyloxy)-propyl)-Ala-Gly) (sBLP), was obtained from Bachem (Torrance, Calif.). The tetrameric form of the disaccharide dipeptide was described previously (Inohara et al., J. Biol. Chem. 278:5509 [2003]). iE-DAP and iQ-DAP, M3P and M4P were synthesized as described (Kitaura et al., J. Med. Chem. 25:335 [1982]) with small modification. Purification of PGN from B. subtilis 168 and C. flaccumfaciens with hydrolases, Cellosyl or recombinant AtlE (amidase domain) and the fractionation and purification of reduced B. subtilis PGN digested with Cellosyl were performed as previously described (Heilman et al., Mol. Microbiol. 24:1013 [1997]; Atrih et al., J. Bact. 181:3956 [1999]). Removal of proteins and reduction of LPS fraction. E. coli O55:B5 LPS (Sigma) was treated with proteinase K at 37° C. for 12 hr to digest contaminating proteins. To eliminate lipoproteins, LPS was subjected to modified phenol extraction with deoxycholate-containing phenol as described (Hirschfeld et al., J. Immunol. 165:618 [2000]). For reduction of carboxyl group in the LPS, the LPS was treated with 1-ethyl-3-(3-dimethylaminopropyl) carbodiimide and then reduced with NaBH4 as described (Taylor et al., Biochemistry 11:1383 [1972]). Preparation of E. coli extract. E. coli K-12 mutants were all based on the SØ864 genetic background (lacZ trp upp relA rpsL) (Neuhard and Thomassen, J. Bacteriol. 126:999). SØ874 carries a large chromosomal deletion removing the gene clusters for the biosynthesis of CA capsule and O-antigen. CLM5 is a derivative of SØ874 with a transposon insertion in the wecC gene that blocks the synthesis of ECA (Marolda et al., J. Bacteriol. 177:5539[1995]). FAM5 is a derivative of SØ874 carrying a deletion that eliminates the incorporation of heptose in the LPS core. Extracts were prepared from all of these E. coli K-12 strains and also from another E. coli K-12 strain, LCD27 YA21-6 (Obtained from Dr. Arisaka, Tokyo Institute of Technology). Bacteria were cultured overnight at 37° C. in Luria broth, killed by treatment with acetone followed by vacuum drying and finally resuspended in 10 mM HEPES. The extract was treated with 1M NaOH at 55° C. for 12 hr and neutralized with 1M HEPES (pH 7.4). The soluble fraction after centrifugation and filtration with 0.22 μm filter was applied to SUPEROSE 12 gel filtration column chromatography. Partial purification of NOD1-stimulatory molecules from E. coli and composition analyses. The amino acid composition of E. coli O55:B5 LPS was determined using AccQ·Tag amino acid analysis system (Waters, Milford, Mass.) after hydrolysis at 110° C. for 24 hr. For carbohydrate analysis, E coli K-12 YA21-6 (Ref 26) cultured overnight at 37° C. in L-broth were washed with TBS twice and incubated with TBS containing 1 mglml DNase I, RNase I and lysozyme for 37° C. for 2 hr. Acetone was added to the extracts at 50% final concentration and the insoluble fractions were washed with an excess of 75% and 100% acetone. After vacuum drying, the acetone extract was solublized with 1 M NaOH and incubated at 60° C. for 24 hr. The pH was adjusted to pH 5.0 with acetic acid and the soluble fraction was passed through SUPEROSE gel filtration column. SUPEROSE fractions with NOD1-stimulatory activity were diluted with 10 mM Tris-HCl (pH 8.8) and subjected to UnoQ column chromatography. The fractions were eluted with a linear gradient of 0–300 mM NaCl. The positive fractions were dialyzed against water and dried under vacuum. The monosaccharide composition of the fractions after TFA/methanol degradation was determined as previously described (Forsberg et al., J. Biol. Chem. 273:2747[1998]). Transfection and NF-κB Activation Assay. […]

NOD2 = molecular target: T2, NOD2 (Homo sapiens, UniProt Q9HC29); test: NF-κB-dependent luciferase reporter assay, HEK293T cells expressing NOD2
T2 construct: expressed in transfected cells; host or cells: HEK293T
Excerpt: (§1) Reagents. LPS from S. typhimurium, intact and alkaline-detoxified LPS from E. coli O55:B5 as well as purified lipid A preparations of E. coli F583, MDP, DAP and dsRNA were obtained from Sigma-Aldrich (St. Louis, Mo.). PGN from S. aureus was from Fluka-Chemie (Buchs, Germany). Palmitoyl-Cys ((RS)-2,3-di(palmitoyloxy)-propyl)-Ala-Gly) (sBLP), was obtained from Bachem (Torrance, Calif.). The tetrameric form of the disaccharide dipeptide was described previously (Inohara et al., J. Biol. Chem. 278:5509 [2003]). iE-DAP and iQ-DAP, M3P and M4P were synthesized as described (Kitaura et al., J. Med. Chem. 25:335 [1982]) with small modification. Purification of PGN from B. subtilis 168 and C. flaccumfaciens with hydrolases, Cellosyl or recombinant AtlE (amidase domain) and the fractionation and purification of reduced B. subtilis PGN digested with Cellosyl were performed as previously described (Heilman et al., Mol. Microbiol. 24:1013 [1997]; Atrih et al., J. Bact. 181:3956 [1999]). Removal of proteins and reduction of LPS fraction. […] The amino acid composition of E. coli O55:B5 LPS was determined using AccQ·Tag amino acid analysis system (Waters, Milford, Mass.) after hydrolysis at 110° C. for 24 hr. […] The monosaccharide composition of the fractions after TFA/methanol degradation was determined as previously described (Forsberg et al., J. Biol. Chem. 273:2747[1998]). […]

TLR4/MD-2 = molecular target: T3, TLR4/MD-2 (Homo sapiens, UniProt O00206+Q9Y6Y9); test: NF-κB-dependent luciferase reporter assay, HEK293T cells expressing TLR4 with co-factor MD-2
T3 construct: expressed in transfected cells; host or cells: HEK293T
Excerpt: as §1

T2 sequence (Q9HC29 whole entry): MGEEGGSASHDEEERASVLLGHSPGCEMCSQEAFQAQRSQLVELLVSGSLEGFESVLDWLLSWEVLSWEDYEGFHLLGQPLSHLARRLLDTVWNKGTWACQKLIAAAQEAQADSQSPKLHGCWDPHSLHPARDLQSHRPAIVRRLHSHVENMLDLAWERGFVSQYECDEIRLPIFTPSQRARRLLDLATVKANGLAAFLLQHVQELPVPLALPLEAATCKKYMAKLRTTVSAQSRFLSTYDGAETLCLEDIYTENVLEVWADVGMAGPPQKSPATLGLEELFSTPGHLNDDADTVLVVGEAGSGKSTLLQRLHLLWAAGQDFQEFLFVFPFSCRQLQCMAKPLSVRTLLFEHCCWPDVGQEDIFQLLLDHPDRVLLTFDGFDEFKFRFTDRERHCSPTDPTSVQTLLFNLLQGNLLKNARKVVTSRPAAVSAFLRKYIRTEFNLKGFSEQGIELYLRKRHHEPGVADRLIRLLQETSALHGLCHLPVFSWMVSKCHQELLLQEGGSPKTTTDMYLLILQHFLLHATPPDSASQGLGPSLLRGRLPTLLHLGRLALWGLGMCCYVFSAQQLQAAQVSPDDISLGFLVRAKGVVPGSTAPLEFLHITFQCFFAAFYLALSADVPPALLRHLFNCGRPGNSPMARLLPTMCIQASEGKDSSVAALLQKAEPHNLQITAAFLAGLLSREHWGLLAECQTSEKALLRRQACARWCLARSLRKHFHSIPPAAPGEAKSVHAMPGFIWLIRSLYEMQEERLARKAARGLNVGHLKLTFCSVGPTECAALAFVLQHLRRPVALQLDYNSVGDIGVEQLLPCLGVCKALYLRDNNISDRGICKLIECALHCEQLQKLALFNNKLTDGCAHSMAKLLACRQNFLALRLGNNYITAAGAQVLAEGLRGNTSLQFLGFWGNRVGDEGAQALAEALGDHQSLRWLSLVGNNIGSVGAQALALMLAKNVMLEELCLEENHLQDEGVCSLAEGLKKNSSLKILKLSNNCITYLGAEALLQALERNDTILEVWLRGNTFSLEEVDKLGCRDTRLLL
T3 sequence (O00206 24-839, species assumed): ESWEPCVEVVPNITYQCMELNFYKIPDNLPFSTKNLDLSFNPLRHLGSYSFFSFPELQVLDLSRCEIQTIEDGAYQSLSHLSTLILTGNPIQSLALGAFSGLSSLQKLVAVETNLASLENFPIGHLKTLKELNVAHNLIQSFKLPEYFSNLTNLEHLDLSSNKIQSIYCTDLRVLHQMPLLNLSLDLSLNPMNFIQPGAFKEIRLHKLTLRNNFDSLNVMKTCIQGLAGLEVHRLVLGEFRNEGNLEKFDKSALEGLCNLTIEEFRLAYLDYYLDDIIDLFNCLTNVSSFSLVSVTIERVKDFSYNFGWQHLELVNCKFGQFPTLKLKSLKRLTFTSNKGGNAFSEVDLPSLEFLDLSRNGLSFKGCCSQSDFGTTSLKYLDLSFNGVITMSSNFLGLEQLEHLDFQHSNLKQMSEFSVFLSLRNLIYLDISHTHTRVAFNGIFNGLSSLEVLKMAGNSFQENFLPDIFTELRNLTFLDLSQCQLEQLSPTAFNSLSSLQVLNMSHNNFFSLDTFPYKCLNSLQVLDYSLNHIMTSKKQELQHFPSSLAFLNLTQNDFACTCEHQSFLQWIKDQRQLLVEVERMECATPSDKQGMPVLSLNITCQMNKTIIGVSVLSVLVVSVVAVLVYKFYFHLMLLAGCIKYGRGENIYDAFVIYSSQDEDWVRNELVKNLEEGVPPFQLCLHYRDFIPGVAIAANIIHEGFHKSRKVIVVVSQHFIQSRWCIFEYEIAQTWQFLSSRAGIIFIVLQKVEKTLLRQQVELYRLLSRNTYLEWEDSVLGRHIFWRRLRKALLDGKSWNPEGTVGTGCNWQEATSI
T3 sequence (Q9Y6Y9 19-160, species assumed): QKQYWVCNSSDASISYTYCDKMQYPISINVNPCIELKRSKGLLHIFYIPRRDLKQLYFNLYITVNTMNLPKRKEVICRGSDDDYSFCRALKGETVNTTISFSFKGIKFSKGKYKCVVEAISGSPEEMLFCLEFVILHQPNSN

Compound | NOD1-dependent NF-κB activation (NOD1 stimulation) (NOD1) | NOD2-dependent NF-κB activation (NOD2) | TLR4/MD-2-dependent NF-κB activation (TLR4/MD-2)
MurNAc-L-Ala-γ-D-Gln-L-Lys [M3P] | failed to stimulate NOD1 | – | –
N-acetylglucosamine(GlcNAc)-N-acetyl-Muramicitol-L-Ala-γ-D-Glu-meso-DAP [GM3p] | stimulated NOD1 in a dose-dependent manner | – | –
N[C@H](CCC[C@H](N)C(=O)O)C(=O)O [DAP, diaminopimelic acid] | unable to stimulate NOD1 | – | –

The remaining lines, values ahead:

NOD1-dependent NF-κB activation (NOD1 stimulation) (NOD1) | NOD2-dependent NF-κB activation (NOD2) | TLR4/MD-2-dependent NF-κB activation (TLR4/MD-2) | Compound
not NOD1 and NOD2 | not NOD1 and NOD2 | responded | lipid A
failed to stimulate NOD1 | – | – | MurNAc-L-Ala-γ-D-Gln-L-Lys-D-Ala [M4P]

Source: patent US7244557B2, “Method of screening modulators of Nod1 signaling” (Regents of the University of Michigan, priority 2003, dated 2007)
